Reference: patent publication US9365541B2, “Compounds for use in the treatment of parasitic diseases” (IRBM—SCIENCE PARK S.P.A., priority 2012, dated 2016)

Columns and labels:
[1] = test system: Plasmodium falciparum 3D7; test: P. falciparum growth inhibition assay (Pf-LDH); assay type: cell-based; details: Plasmodium falciparum, Erythrocyte; P. falciparum 3D7 infected erythrocytes, 72 h incubation, PfLDH readout
How it was run: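 Compounds were tested against 72 h cultures of the 3D7 strain (0.25% parasitemia, 2% hematocrit, 37° C, low-oxygen gas). Parasite growth was quantified as lactate dehydrogenase activity via NBT reduction, absorbance 650 nm, after freezing and thawing.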

human HDAC1 = target: T1, human HDAC1 (Homo sapiens, UniProt Q13547); test: Homo sapiens HDAC1 inhibition assay (Fluor-de-Lys, enzymatic); assay type: biochemical; details: human HDAC enzymatic assay; read-out: hHDAC IC50
T1 construct: made in house; host or cells: HeLa (ATCC CCL-2), mammalian cells
T1 sequence (Q13547 whole entry): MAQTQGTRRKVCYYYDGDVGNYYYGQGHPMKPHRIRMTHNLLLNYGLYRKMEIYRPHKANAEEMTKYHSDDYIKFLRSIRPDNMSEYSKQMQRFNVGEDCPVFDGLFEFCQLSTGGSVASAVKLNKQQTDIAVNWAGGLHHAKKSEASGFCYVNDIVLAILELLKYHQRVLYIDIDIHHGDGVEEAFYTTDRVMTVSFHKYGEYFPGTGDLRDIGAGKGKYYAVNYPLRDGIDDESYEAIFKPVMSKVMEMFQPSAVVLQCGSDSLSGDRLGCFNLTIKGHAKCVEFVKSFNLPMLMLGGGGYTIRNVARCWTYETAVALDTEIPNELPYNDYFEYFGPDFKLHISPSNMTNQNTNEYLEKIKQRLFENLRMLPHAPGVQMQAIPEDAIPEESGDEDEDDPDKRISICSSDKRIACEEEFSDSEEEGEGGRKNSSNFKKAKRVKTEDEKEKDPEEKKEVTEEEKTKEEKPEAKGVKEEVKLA
How it was run: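 Fluorogenic deacetylation read-out: trypsin developer, supplemented with 2 μM final TSA as stop, releases fluorophore from deacetylated substrate.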

EC50 [1] [nM] | IC50 (human HDAC1) [nM] | Structure (SMILES)
1000 to 5000 | < 1000 | CNC(=O)CCCCC[C@H](NC(=O)OCc1ccccc1)c1ncc(-c2ccc3ccccc3c2)[nH]1 [Entry 72, (S)-benzyl (7-(methylamino)-1-(5-(naphthalen-2-yl)-1H-imidazol-2-yl)-7-oxo-heptyl)carbamate]
1000 to 5000 | 1000 to 5000 | CNC(=O)CCCCC[C@H](NC(=O)Cc1cn2ccsc2n1)c1ncc(-c2ccc3ccncc3c2)[nH]1 [Entry 168, (S)-7-(2-(imidazo[2,1-b]thiazol-6-yl)acetamido)-7-(5-(isoquinolin-7-yl)-1H-imidazol-2-yl)-N-methyl-heptanamide]
1000 to 5000 | 1000 to 5000 | CNC(=O)CCCCC[C@H](NC(=O)c1ccnc2c1CCCN2)c1ncc(-c2ccc3ccccc3c2)[nH]1 [Entry 2, (S)-N-(7-(methylamino)-1-(5-(naphthalen-2-yl)-1H-imidazol-2-yl)-7-oxoheptyl)-5,6,7,8-tetrahydro-1,8-naphthyridine-4-carboxamide]
1000 to 5000 | 1000 to 5000 | CNC(=O)CCCCC[C@H](NC(=O)Cn1cncn1)c1ncc(-c2ccc3ccncc3c2)[nH]1 [Entry 89, (S)-7-(2-(1H-1,2,4-triazol-1-yl)acetamido)-7-(5-(isoquinolin-7-yl)-1H-imidazol-2-yl)-N-methylheptanamide]
1000 to 5000 | < 1000 | CNC(=O)CCCCC[C@H](NC(=O)CCN1CCCCC1)c1ncc(-c2cc3ccccc3nc2OC)[nH]1 [Entry 99]
1000 to 5000 | 1000 to 5000 | CNC(=O)CCCCC[C@H](NC(=O)Cn1ccc(C)n1)c1ncc(-c2ccc3ccncc3c2)[nH]1 [Entry 119]
< 1000 | < 1000 | CNC(=O)CCCCC[C@H](NC(=O)c1cncs1)c1ncc(-c2cc3ccccc3[nH]c2=O)[nH]1 [Entry 193, (S)-N-(7-(methylamino)-7-oxo-1-(5-(2-oxo-1,2-dihydroquinolin-3-yl)-1H-imidazol-2-yl)heptyl)thiazole-5-carboxamide]
1000 to 5000 | 1000 to 5000 | CNC(=O)CCCCC[C@H](NC(=O)[C@@H]1CCCN2CCCC[C@H]12)c1ncc(-c2ccc3ccncc3c2)[nH]1 [Entry 206, (1R,9aR)-N-((S)-1-(5-(isoquinolin-7-yl)-1H-imidazol-2-yl)-7-(methylamino)-7-oxoheptyl)octa-hydro-1H-quinolizine-1-carboxamide]
> 5000 | 1000 to 5000 | CNC(=O)CCCCC[C@H](NC(=O)Cc1nc(C)cs1)c1ncc(-c2ccc3ccncc3c2)[nH]1 [Entry 68]
1000 to 5000 | 1000 to 5000 | CNC(=O)CCCCC[C@H](NC(=O)c1cnc(CN2CCCC2)s1)c1ncc(-c2ccc(-n3cccn3)cc2)[nH]1 [Entry 141, (S)-N-(1-(5-(4-(1H-pyrazol-1-yl)phenyl)-1H-imidazol-2-yl)-7-(methylamino)-7-oxoheptyl)-2-(pyrrolidin-1-ylmethyl)thiazole-5-carboxamide]
1000 to 5000 | < 1000 | CNC(=O)CCCCC[C@H](NC(=O)C1CCCN(C)C1)c1ncc(-c2cc3ccccc3nc2OC)[nH]1 (stereo partly drawn) [Entry 33, N-((S)-1-(5-(2-methoxyquinolin-3-yl)-1H-imidazol-2-yl)-7-(methylamino)-7-oxoheptyl)-1-methylpiperidine-3-carboxamide]
1000 to 5000 | 1000 to 5000 | CNC(=O)CCCCC[C@H](NC(=O)c1cncs1)c1ncc(-c2ccc3nc(C(F)(F)F)ccc3c2)[nH]1 [Entry 19, (S)-N-(7-(methylamino)-7-oxo-1-(5-(2-(trifluoro-methyl)quinolin-6-yl)-1H-imidazol-2-yl)heptyl)thiazole-5-carboxamide]
> 5000 | > 5000 | CNC(=O)CCCCC[C@H](NC(=O)c1cncs1)c1ncc(-c2ccc3ccccc3c2F)[nH]1 [Entry 137, (S)-N-(1-(5-(1-fluoronaphthalen-2-yl)-1H-imidazol-2-yl)-7-(methylamino)-7-oxoheptyl)thiazole-5-carboxamide]
< 1000 | < 1000 | CNC(=O)CCCCC[C@H](NC(=O)Cc1cnc2ncnn2c1)c1ncc(-c2ccc3ccccc3c2)[nH]1 [Entry 22, (S)-7-(2-([1,2,4]triazolo[1,5-a]pyrimidin-6-yl)acetamido)-N-methyl-7-(5-(naphthalen-2-yl)-1H-imidazol-2-yl)heptanamide]
< 1000 | < 1000 | CNC(=O)CCCCC[C@H](NC(=O)c1cncs1)c1ncc(-c2ccc3cc(C(F)(F)F)ncc3c2)[nH]1 [Entry 190]
1000 to 5000 | > 5000 | CNC(=O)CCCCC[C@H](NC(=O)CCN1CCCCC1)c1ncc(-c2ccc(C(F)(F)F)cc2)[nH]1 [Entry 101, (S)-N-methyl-7-(3-(piperidin-1-yl)propanamido)-7-(5-(4-(trifluoro-methyl)phenyl)-1H-imidazol-2-yl)heptanamide]
< 1000 | 1000 to 5000 | CNC(=O)CCCCC[C@H](NC(=O)c1cnc(CN2CCCC2)s1)c1ncc(-c2ccc(-c3ccn(C)n3)cc2)[nH]1 [Entry 124, (S)-N-(1-(5-(4-(1-methyl-1H-pyrazol-3-yl)phenyl)-1H-imidazol-2-yl)-7-(methylamino)-7-oxoheptyl)-2-(pyrrolidin-1-ylmethyl)thiazole-5-carboxamide]
1000 to 5000 | > 5000 | CNC(=O)CCCCC[C@H](NC(=O)c1cc(C)nn1C)c1ncc(-c2ccc(-c3ccn(C)n3)cc2)[nH]1 [Entry 215, (S)-1,3-dimethyl-N-(1-(5-(4-(1-methyl-1H-pyrazol-3-yl)phenyl)-1H-imidazol-2-yl)-7-(methylamino)-7-oxoheptyl)-1H-pyrazole-5-carboxamide]
< 1000 | < 1000 | CNC(=O)CCCCC[C@H](NC(=O)c1cnsc1)c1ncc(-c2ccc3ccncc3c2)[nH]1 [Entry 46, (S)-N-(1-(5-(isoquinolin-7-yl)-1H-imidazol-2-yl)-7-(methylamino)-7-oxo-heptyl)isothiazole-4-carboxamide]
< 1000 | < 1000 | CNC(=O)CCCCC[C@H](NC(=O)c1cnn(C(C)C)c1)c1ncc(-c2ccc3ccncc3c2)[nH]1 [Entry 90, (S)-1-isopropyl-N-(1-(5-(isoquinolin-7-yl)-1H-imidazol-2-yl)-7-(methylamino)-7-oxoheptyl)-1H-pyrazole-4-carboxamide]
< 1000 | 1000 to 5000 | CNC(=O)CCCCC[C@H](NC(=O)c1cnsc1)c1ncc(-c2ccc(-c3ccn(C)n3)cc2)[nH]1 [Entry 210]
1000 to 5000 | 1000 to 5000 | CNC(=O)CCCCC[C@H](NC(=O)c1cncs1)c1ncc(-c2ccc3ccnc(OC)c3c2)[nH]1 [Entry 219, (S)-N-(1-(5-(1-methoxyisoquinolin-7-yl)-1H-imidazol-2-yl)-7-(methylamino)-7-oxoheptyl)thiazole-5-carboxamide]
> 5000 | > 5000 | CNC(=O)CCCCC[C@H](NC(=O)c1cncs1)c1ncc(-c2ccc(-n3nc(C)cc3C)cc2)[nH]1 [Entry 81, (S)-N-(1-(5-(4-(3,5-dimethyl-1H-pyrazol-1-yl)phenyl)-1H-imidazol-2-yl)-7-(methylamino)-7-oxoheptyl)thiazole-5-carboxamide]
> 5000 | > 5000 | CNC(=O)CCCCC[C@H](NC(=O)C1CCCO1)c1ncc(-c2cc3ccccc3nc2OC)[nH]1 (stereo partly drawn) [Entry 187, N-((S)-1-(5-(2-methoxyquinolin-3-yl)-1H-imidazol-2-yl)-7-(methylamino)-7-oxo-heptyl)tetra-hydrofuran-2-carboxamide]
1000 to 5000 | < 1000 | CNC(=O)CCCCC[C@H](NC(=O)Cn1nnc2ccccc21)c1ncc(-c2cc3ccccc3nc2OC)[nH]1 [Entry 7]
1000 to 5000 | < 1000 | COc1ccc2[nH]c(C)c(CC(=O)N[C@@H](CCCCCC(N)=O)c3nnc(-c4ccc5ccccc5c4)o3)c2c1 [Entry 174, (S)-7-(2-(5-methoxy-2-methyl-1H-indol-3-yl)acetamido)-7-(5-(naphthalen-2-yl)-1,3,4-oxadiazol-2-yl)heptanamide]
> 5000 | > 5000 | CNC(=O)CCCCC[C@H](NC(=O)C1(C)CCCO1)c1ncc(-c2ccc3ccncc3c2)[nH]1 (stereo partly drawn) [Entry 121, N-((S)-1-(5-(isoquinolin-7-yl)-1H-imidazol-2-yl)-7-(methylamino)-7-oxoheptyl)-2-methyltetrahydrofuran-2-carboxamide]
> 5000 | > 5000 | CNC(=O)CCCCC[C@H](NC(=O)c1cc(C)n(-c2ccccc2)n1)c1ncc(-c2ccc3ccccc3c2)[nH]1 [Entry 82, (S)-5-methyl-N-(7-(methylamino)-1-(5-(naphthalen-2-yl)-1H-imidazol-2-yl)-7-oxoheptyl)-1-phenyl-1H-pyrazole-3-carboxamide]
1000 to 5000 | 1000 to 5000 | CNC(=O)CCCCC[C@H](NC(=O)C1CC1c1ccncc1)c1ncc(-c2ccc(-c3ccn(C)n3)cc2)[nH]1 (stereo partly drawn) [Entry 170, N-((S)-1-(5-(4-(1-methyl-1H-pyrazol-3-yl)phenyl)-1H-imidazol-2-yl)-7-(methylamino)-7-oxoheptyl)-2-(pyridin-4-yl)cyclopropane-carboxamide]

Structure (SMILES) | EC50 [1] [nM] | IC50 (human HDAC1) [nM]
CNC(=O)CCCCC[C@H](NC(=O)c1cncs1)c1ncc(-c2ccc(-c3ccn[nH]3)cc2)[nH]1 [Entry 221, (S)-N-(1-(5-(4-(1H-pyrazol-5-yl)phenyl)-1H-imidazol-2-yl)-7-(methylamino)-7-oxoheptyl)thiazole-5-carboxamide] | < 1000 | 1000 to 5000
CNC(=O)CCCCC[C@H](OC(=O)C12CCN(CC1)CC2)c1ncc(-c2cc3ccccc3nc2OC)o1 [Entry 56] | 1000 to 5000 | < 1000
CNC(=O)CCCCC[C@H](NC(=O)C12CCN(CC1)CC2)c1ncc(-c2ccc3cc(F)ccc3c2)[nH]1 [Entry 154, (S)-N-(1-(5-(6-fluoronaphthalen-2-yl)-1H-imidazol-2-yl)-7-(methylamino)-7-oxo-heptyl)quinuclidine-4-carboxamide] | < 1000 | < 1000
